Source: patent US20220137060A1, “FULL LENGTH KINASE ACTIVITY-CONFORMATION REPORTER” (UNIVERSITAT INNSBRUCK, priority 2016, published 2022)
“Also recorded” adds a separate entry of the source.

What was measured:
Type in all cases: cell-based
[1] = target: T1, wild type BRAF (Homo sapiens, UniProt P15056); experiment: Intramolecular Rluc PCA reporter F[1]-BRAF-F[2] (wild type), transiently transfected HEK293 cells; parameters: Renilla luciferase PCA fragment F[1]; Renilla luciferase PCA fragment F[2]; expressed in transfected cells; host or cells: HEK293 (transient, pcDNA3.1); settings: for Effect on reporter luminescence signal: HEK293, 1 μM, 3 h treatments (FIG. 5A, 6A)
Method: (§1) Cell culture and antibodies. HEK293 and SW480 cells were grown in DMEM supplemented with 10% (vol/vol) FBS. Cells were passaged three times a week to keep the cells in culture. Transient transfections were performed with Transfectin reagent (Bio-Rad, #1703350). […] The primary antibody used was anti-BRAF(F-7) (Santa Cruiz Biotechnology, #sc-5284).
(§2) Expression constructs. The Rluc PCA hybrid proteins F[1]-BRAF-F[2] and F[1]-BRAF(V600E)-F[2] have been generated using the identical cloning approach. Following PCR amplification of the human BRAF or BRAF(V600E) gene, the coding region of the BRAF protein (SEQ ID No: 2 or 5) was fused N-terminally with F[1] (SEQ ID No: 13) and C-terminally with F[2] (SEQ ID No: 17) of the Rluc PCA coding region. In addition. the sequence of two interjacent 10-aa linkers (GGGGS)2 (SEQ ID No: 18) was integrated by cloning. As vector backbone we used the pcDNA3.1 plasmid. The MEK1 expression constructs (s. SEQ ID No: 23) and the Gluc PCA based BRAF reporter (s. SEQ ID No: 24) were prepared analogously.
(§3) Renilla/Gaussia luciferase PCA experiments. Cells were grown in DMEM supplemented with 10% FBS. Indicated versions of the Rluc PCA based biosensor were transiently overexpressed in 24-well plate format. 48 hours post-transfection, the growth medium was partially removed and different compounds added with concentrations as indicated in the figure legends. To measure the dose-dependent effect of the lead molecules (candidate compounds) on the intramolecular Rluc PCA reporter, the attached cells were treated with different concentrations and for different time-frames. The time-dependent consequences of the lead compounds on kinase conformations were recorded with a final compound concentration of 1 μM. For the Rluc PCA measurements the growth medium was carefully removed and the cells were washed with PBS. Cells were resuspended in PBS and the cell suspensions were transferred to 96-well plates and subjected to luminescence analysis using the LMaxTM-II-384 luminometer (Molecular Devices). Rluc luminescence signals were integrated for 10 seconds with a delay time of 3 seconds following addition of 20 μl of the Rluc substrate benzyl-coelenterazine (5 μM; Nanolight, #301) in PBS with a concentration of 25 nM. Dose-dependent effects of drug exposure on luminescence signals originating from BRAF conformations were compared using indicated controls. Cells were collected after PCA measurements and lysed with Laemmli sample buffer to control the protein expression levels. In case of Gluc reporters, coelenterazine was used as luminescence substrate.
Target sequence in this assay (P15056 with tags, fused parts or gaps): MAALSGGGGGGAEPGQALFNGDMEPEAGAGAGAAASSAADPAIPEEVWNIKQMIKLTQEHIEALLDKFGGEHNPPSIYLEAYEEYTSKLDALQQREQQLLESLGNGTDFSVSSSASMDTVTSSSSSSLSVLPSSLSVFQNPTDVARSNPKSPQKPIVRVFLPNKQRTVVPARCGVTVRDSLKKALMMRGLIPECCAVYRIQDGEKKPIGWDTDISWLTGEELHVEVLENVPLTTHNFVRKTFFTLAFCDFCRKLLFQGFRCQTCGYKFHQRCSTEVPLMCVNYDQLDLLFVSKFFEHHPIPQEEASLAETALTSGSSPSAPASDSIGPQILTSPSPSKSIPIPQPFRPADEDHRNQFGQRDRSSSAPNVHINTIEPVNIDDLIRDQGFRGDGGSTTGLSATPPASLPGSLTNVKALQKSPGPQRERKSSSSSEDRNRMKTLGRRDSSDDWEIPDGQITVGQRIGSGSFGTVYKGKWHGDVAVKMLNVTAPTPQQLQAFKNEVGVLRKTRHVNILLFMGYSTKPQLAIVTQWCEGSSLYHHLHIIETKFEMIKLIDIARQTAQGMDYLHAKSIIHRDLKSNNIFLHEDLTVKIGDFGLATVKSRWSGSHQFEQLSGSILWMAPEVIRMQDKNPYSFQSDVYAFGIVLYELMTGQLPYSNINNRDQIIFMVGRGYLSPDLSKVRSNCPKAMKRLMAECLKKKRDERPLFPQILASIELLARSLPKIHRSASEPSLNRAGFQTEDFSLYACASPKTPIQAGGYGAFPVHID

[2] = target: BRAF D594G (Homo sapiens, UniProt P15056, D594G); experiment: Intramolecular Rluc PCA mutant BRAF reporter (D594G), transiently transfected HEK293 cells; settings: HEK293, 1 μM, 3 h treatments (FIG. 5B)
Method: as §1
(§4) Expression constructs. The Rluc PCA hybrid proteins F[1]-BRAF-F[2] and F[1]-BRAF(V600E)-F[2] have been generated using the identical cloning approach. Following PCR amplification of the human BRAF or BRAF(V600E) gene, the coding region of the BRAF protein (SEQ ID No: 2 or 5) was fused N-terminally with F[1] (SEQ ID No: 13) and C-terminally with F[2] (SEQ ID No: 17) of the Rluc PCA coding region. […]
(§5) Renilla/Gaussia luciferase PCA experiments. […] The time-dependent consequences of the lead compounds on kinase conformations were recorded with a final compound concentration of 1 μM. […] Cells were resuspended in PBS and the cell suspensions were transferred to 96-well plates and subjected to luminescence analysis using the LMaxTM-II-384 luminometer (Molecular Devices). Rluc luminescence signals were integrated for 10 seconds with a delay time of 3 seconds following addition of 20 μl of the Rluc substrate benzyl-coelenterazine (5 μM; Nanolight, #301) in PBS with a concentration of 25 nM. […] In case of Gluc reporters, coelenterazine was used as luminescence substrate.

[3] = target: T2, BRAF-V600E (Homo sapiens, UniProt P15056, V600E); experiment: Intramolecular Gluc PCA reporter GlucF[1]-BRAF-V600E-GlucF[2], transiently transfected HEK293 cells; settings: HEK293, 1 μM, 3 h treatments (FIG. 8)
T2 construct: Renilla luciferase PCA fragment F[1]; Renilla luciferase PCA fragment F[2]; expressed in transfected cells; host or cells: HEK293 (transient, pcDNA3.1)
Method: as §1, §4, §5

[4] = target: BRAF V600R (Homo sapiens, UniProt P15056, V600R); experiment: Intramolecular Rluc PCA mutant BRAF reporter (V600R), transiently transfected HEK293 cells; settings: HEK293, 1 μM, 3 h treatments (FIG. 5B)
Method: as §1, §4, §5

[5] = target: BRAF V600K (Homo sapiens, UniProt P15056, V600K); experiment: Intramolecular Rluc PCA mutant BRAF reporter (V600K), transiently transfected HEK293 cells; settings: HEK293, 1 μM, 3 h treatments (FIG. 5B)
Method: as §1, §4, §5

[6] = target: T2, BRAF-V600E; experiment: Intramolecular Rluc PCA reporter F[1]-BRAF(V600E)-F[2], transiently transfected HEK293 cells; settings: HEK293, 1 μM; for Effect on reporter bioluminescence signal / conformation: BRAF V600E reporter, 3 h treatments (FIG. 5B, 6B)
Method: as §1, §2
Mutagenesis. Site directed mutagenesis have been performed to generate following mutations in the reporter constructs: V600E, V600K, V600R, D594G, and G469A in BRAF and S218A and the S218E/S222E double mutation in MEK1.
as §3

[7] = target: BRAF G469A (Homo sapiens, UniProt P15056, G469A); experiment: Intramolecular Rluc PCA mutant BRAF reporter (G469A), transiently transfected HEK293 cells; settings: HEK293, 1 μM, 3 h treatments (FIG. 5B)
Method: as §1, §4, §5

[8] = target: T1, wild type BRAF; experiment: Intramolecular Gluc PCA reporter GlucF[1]-BRAF-GlucF[2] (wild type), transiently transfected HEK293 cells; settings: HEK293, 1 μM, 3 h treatments (FIG. 8)
Method: as §1, §4, §5
Target sequence in this assay (P15056 with tags, fused parts or gaps): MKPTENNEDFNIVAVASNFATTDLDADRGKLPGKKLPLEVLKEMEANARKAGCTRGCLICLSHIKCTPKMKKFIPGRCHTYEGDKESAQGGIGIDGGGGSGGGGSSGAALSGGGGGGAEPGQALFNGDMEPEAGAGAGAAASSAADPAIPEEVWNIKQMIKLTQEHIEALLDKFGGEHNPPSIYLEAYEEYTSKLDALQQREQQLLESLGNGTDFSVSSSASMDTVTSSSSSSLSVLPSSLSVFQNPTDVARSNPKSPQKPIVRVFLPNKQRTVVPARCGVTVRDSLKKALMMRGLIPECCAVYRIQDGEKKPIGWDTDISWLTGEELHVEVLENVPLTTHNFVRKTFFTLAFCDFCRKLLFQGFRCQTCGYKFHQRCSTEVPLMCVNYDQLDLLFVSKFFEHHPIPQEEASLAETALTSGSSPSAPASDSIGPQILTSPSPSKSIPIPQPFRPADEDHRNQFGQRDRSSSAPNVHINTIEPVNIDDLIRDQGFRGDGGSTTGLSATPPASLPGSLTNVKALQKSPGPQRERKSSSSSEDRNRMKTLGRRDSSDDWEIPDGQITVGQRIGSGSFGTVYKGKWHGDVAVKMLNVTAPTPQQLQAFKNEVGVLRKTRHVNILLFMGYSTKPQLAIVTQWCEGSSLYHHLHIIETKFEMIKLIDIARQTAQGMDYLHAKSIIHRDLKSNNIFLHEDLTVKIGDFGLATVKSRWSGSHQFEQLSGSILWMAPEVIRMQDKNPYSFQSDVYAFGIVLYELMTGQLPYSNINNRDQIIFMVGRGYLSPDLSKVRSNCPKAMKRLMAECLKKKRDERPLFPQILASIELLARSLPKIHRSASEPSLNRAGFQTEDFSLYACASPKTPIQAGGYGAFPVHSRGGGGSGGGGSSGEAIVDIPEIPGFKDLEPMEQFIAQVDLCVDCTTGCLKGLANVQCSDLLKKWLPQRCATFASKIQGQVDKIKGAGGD

T2 sequence (P15056 with tags, fused parts or gaps V600E): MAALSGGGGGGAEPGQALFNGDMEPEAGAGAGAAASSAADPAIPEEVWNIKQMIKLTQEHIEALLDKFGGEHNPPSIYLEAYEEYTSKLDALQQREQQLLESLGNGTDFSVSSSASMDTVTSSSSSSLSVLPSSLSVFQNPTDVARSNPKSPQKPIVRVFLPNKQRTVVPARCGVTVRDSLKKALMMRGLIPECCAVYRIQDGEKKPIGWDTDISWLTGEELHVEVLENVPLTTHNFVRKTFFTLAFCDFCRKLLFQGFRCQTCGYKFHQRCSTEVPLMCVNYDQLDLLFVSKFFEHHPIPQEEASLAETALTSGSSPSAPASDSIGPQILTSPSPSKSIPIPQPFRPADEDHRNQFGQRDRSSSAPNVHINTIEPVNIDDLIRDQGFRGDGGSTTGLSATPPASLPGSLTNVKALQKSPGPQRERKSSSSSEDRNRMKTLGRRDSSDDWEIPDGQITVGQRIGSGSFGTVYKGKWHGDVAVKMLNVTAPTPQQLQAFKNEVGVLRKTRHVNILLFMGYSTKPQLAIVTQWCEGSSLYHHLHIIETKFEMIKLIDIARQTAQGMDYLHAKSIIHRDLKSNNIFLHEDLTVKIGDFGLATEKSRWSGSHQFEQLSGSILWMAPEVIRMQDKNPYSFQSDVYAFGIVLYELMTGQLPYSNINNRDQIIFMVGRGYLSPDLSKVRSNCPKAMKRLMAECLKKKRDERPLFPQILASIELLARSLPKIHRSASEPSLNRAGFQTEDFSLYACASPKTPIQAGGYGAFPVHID
Chain of BRAF D594G (P15056 with tags, fused parts or gaps D594G): as the sequence (P15056 with tags, fused parts or gaps V600E) above, with D594G, E600V counted along it
Chain of BRAF V600R (P15056 with tags, fused parts or gaps V600R): as the sequence (P15056 with tags, fused parts or gaps V600E) above, with E600R counted along it
Chain of BRAF V600K (P15056 with tags, fused parts or gaps V600K): as the sequence (P15056 with tags, fused parts or gaps V600E) above, with E600K counted along it
Chain of BRAF G469A (P15056 with tags, fused parts or gaps G469A): as the sequence (P15056 with tags, fused parts or gaps V600E) above, with G469A, E600V counted along it

Row | Compound | Time-dependent effect on reporter conformation (Rluc PCA signal) ([1]; HEK293, 1 μM (FIG. 4)) | Effect on reporter luminescence signal [1] | Effect on reporter bioluminescence signal / conformation [2] | Effect on Gluc PCA luciferase signal / conformation [3] | Effect on reporter bioluminescence signal / conformation [4] | Effect on reporter bioluminescence signal / conformation [5] | Effect on reporter bioluminescence signal / conformation [6] | Time-dependent effect on reporter conformation (Rluc PCA signal) ([6]; BRAF-V600E reporter, up to 3 h (FIG. 4)) | Effect on reporter bioluminescence signal / conformation [7] | Effect on Gluc PCA luciferase signal / conformation [8]
1 | O=C(c1c(F)ccc(NS(=O)(=O)N2CC[C@@H](F)C2)c1F)c1c[nH]c2ncc(-c3cnc(C4CC4)nc3)cc12 [PLX8394] | not affected | not susceptible; also recorded: only slight changes in the luminescence signal | significant shift to the closed conformation | enhanced the luciferase signal exclusively with the V600E BRAF mutant | significant shift to the closed conformation | significant shift to the closed conformation | significant shift to the closed conformation | immediate shift of the BRAF-V600E reporter to the closed conformation was observed increasing up to 3 h | significant shift to the closed conformation | not affected
2 | N#CC(=C(/N)Sc1ccccc1N)/C(C#N)=C(\N)Sc1ccccc1N [U0126] | – | only slight changes in the luminescence signal | – | – | – | – | exclusively influenced by the BRAF specific inhibitors | – | – | –
3 | CC(C)(C)c1nc(-c2cccc(NS(=O)(=O)c3c(F)cccc3F)c2F)c(-c2ccnc(N)n2)s1 [dabrafenib] | – | only slight changes in the luminescence signal | – | – | – | – | shift to the closed conformation | – | – | –
4 | COC(=O)N[C@@H](C)CNc1nccc(-c2cn(C(C)C)nc2-c2cc(Cl)cc(NS(C)(=O)=O)c2F)n1 [encorafenib] | – | only slight changes in the luminescence signal | – | – | – | – | shift to the closed conformation | – | – | –
5 | COc1cc(F)c(F)c(Nc2ccc(I)cc2F)c1NS(=O)(=O)C1(C[C@H](O)CO)CC1 [refametinib] | – | only slight changes in the luminescence signal | – | – | – | – | exclusively influenced by the BRAF specific inhibitors | – | – | –
